Data as given in US5124352A, “Fat emulsions containing isocarbacyclin” (Teijin Limited, priority 1985, dated 1992).

Tests used:
[1] = system: PRP (ADP platelet agglutination); assay: ADP platelet agglutination inhibitory action by PRP; format: cell-based; design: reference not given here; details: 37° C., 0.025 μm filtrate
Procedure: Fifty (50) μl of the fat emulsion obtained in Examples 1 and 2 was transferred into 950 μl of saline or 2 % bovine serum albumin (BSA) and incubated at 37° C. for 1, 3, and 10 minutes. Next, the ADP platelet agglutination inhibitory action by PRP was determined using the filtrate which had been passed through a 0.025 μm filter. A known quantity of the dilution before filtration was added to PRP and incubated at 37° C. for 1 minute. Thereafter, ADP agglutination was induced to construct a dose-response curve. The platelet agglutination inhibitory action was calculated from this curve.

human platelets = assay: Time course of the formation of cyclic AMP using human platelets (production capability and maintenance of cyclic AMP); format: cell-based; details: for Relative value (C-AMP production): first time point of the series = 100; for C-AMP production: human platelets, 37° C.
Procedure: The time course of the formation of cyclic AMP by the fat emulsion in the invention was determined using human platelets so as to compare with the time course of the compound which was not emulsified in fat. Human blood 50 ml was collected using 1 part of 3.8 % sodium citrate for 9 parts of blood. The blood sample was centrifuged at 1300 rpm for 10 minutes. The upper layer was taken out as PRP (platelet-rich plasma) and centrifuged at 3000 rpm for 20 minutes. The precipitate thus obtained (platelets) was suspended in 2 ml of Tris buffered solution-saline-glucose-EDTA (TSG-EDTA) (pH 7.4).
The fat emulsion, which had previously been transferred in a plastic tube containing 350 μl of TSG-EDIA and 50 μl of platelet suspension and incubated at 37° C., was supplemented with 50 μl of 5mM isobutylmethylxanthin dissolved in saline, and 2 minutes later, reactions were stopped with 0.5 ml of 10% trichloroacetic acid (TCA). The cells were destroyed by thawing the lyophilized specimen in order to release intracellular cyclic AMP. After removal of TCA with watersaturated ether, the content of C-AMP was determined by radio immunoassay technique.

SMILES | Platelet agglutination inhibitory action ([1]; 2% BSA, incubation time 1 min) [%] | Platelet agglutination inhibitory action ([1]; 2% BSA, incubation time 10 min) [%] | Relative value (C-AMP production) (human platelets; Time 0 min) [%] | C-AMP production (human platelets; Time 0 min) [pico mol] | Relative value (C-AMP production) (human platelets; Time 30 min) [%] | C-AMP production (human platelets; Time 30 min) [pico mol] | Relative value (C-AMP production) (human platelets; Time 60 min) [%] | C-AMP production (human platelets; Time 60 min) [pico mol] | Platelet agglutination inhibitory action ([1]; Saline, incubation time 10 min) [%] | Relative value (C-AMP production) (human platelets; Time 10 min) [%] | C-AMP production (human platelets; Time 10 min) [pico mol] | Relative value (C-AMP production) (human platelets; Time 120 min) [%] | C-AMP production (human platelets; Time 120 min) [pico mol]
CCCCCC(O)C=CC1C(O)CC2C=C(CCCCC(=O)OC)CC21 (centres unmarked) [(IV), isocarbacyclin methyl ester] | 65.4 | 56.2 |  |  |  |  |  |  |  |  |  |  | 
CCCCCC(O)C=CC1C(O)CC2C=C(CCCCC(=O)O)CC21 (stereo not drawn) [Compound (I), 9(0)-methano-Δ^6(9α) -PGI1] | 100.1 | 107.7 | 100 | 320 | 63 | 200 | 31 | 100 | 41.1 |  |  |  | 
CCCCCC(O)C=CC1C(O)CC2C=C(CCCCC(=O)O)CC21 (centres unmarked) [Compound (II), 16,17,18,19,20-pentanor-15-pentylisocarbacyclin] |  |  |  |  | 74 | 320 | 27 | 120 |  | 100 | 430 |  | 
COC(=O)CCCC=C1OC2CC(O)C(C=CC(O)C3CCCC3)C2C1F (centres unmarked) [Compound (III), 7-fluoro-16,17,18,19, 20-pentanor-15-cyclopentylprostacyclin methyl ester] |  |  |  |  | 100 | 100 | 90 | 90 |  |  |  | 40 | 40
